Earlier results, collected in patent publication US5231002A, “Synthetic SCM-active cancer recognition peptides” (priority 1990, dated 1993).

Legend:
[1] = tested on: potentially SCM-responding lymphocytes from donors with malignant diseases
[2] = tested on: lymphocytes from multiple sclerosis; conditions: lymphocytes from multiple sclerosis patients

CaBP
effectiveness as cancer-associated antigen in the SCM test ([1]; known cancer-associated antigens): effective in the SCM test
time until response of lymphocytes is lost after surgical removal of malignancy ([1]; malignancies of breast or colon surgically removed): ≤ 24 h
response in the SCM test (in words) [2]: do not respond
